Results on 9 compounds are retold here after patent US3978225A, “Heterocyclic homoprostanoidal derivatives” (SmithKline Corporation, priority 1975, dated 1976).

For one experiment, the system named is prostaglandin synthesis. Briefly: Inhibition of prostaglandin synthesis (arachidonic acid-dependent formation of adrenochrome from L-epinephrine). The experiment is classed as biochemical. To be noted: for Inhibition of prostaglandin synthesis: 1000 μM; for IC50: read-out: ID50, inhibition of prostaglandin synthesis. An excerpt:
The prostaglandin synthesis inhibition method as employed is reported by Takeguchi and Sih, Prastaglandins, 2, 169, 1972. The principle entails the arachidonic acid-dependent formation of adrenochrome from L-epinephrine during prostaglandin biosynthesis. Indomethacin, phenylbutazone and aspirin were used as reference compounds.

The subject of experiment [1] is diarrhea induced by prostaglandin E2 (PGE2). The experiment in a line: Inhibition of PGE2 diarrhea in mice. To be noted: 15 minutes prior to i.p. PGE2. It counts as in vivo. The method, then:
The antagonism of diarrhea induced by prostaglandin E2 (PGE2) was determined by employing the modified standard animal pharmacological test procedure as reported in Intra Science Chem. Rept 6:1-9, 1972 and Annals of the New York Academy of Sciences 180:386-95, 1971. Briefly the test comprises administering the test compounds subcutaneously 15 minutes prior to an intraperitoneal injection of PGE2. Each animal is examined for diarrhea (which results after the administration of PGE2) every 15 minutes for one hour post-drug. Polyphloretin phosphate and 7 oxa-13-prostynoic acid, both well known antagonists of prostaglandin induced diarrhea, were employed as reference compounds. Results of tests conducted for the inhibition of PGE2 diarrhea in mice are disclosed in Table 2.

For the compound `CCCCCCCC[C@@H]1OS(=O)O[C@H]1CCCCCCCC(=O)OC` (relative stereo) [Compound C], the “Inhibition of prostaglandin synthesis” value with prostaglandin synthesis was found to be 20%. Also, the “Percent Change, Diarrhea Incidence” value is given as “+15%” in experiment [1] (5 mg/kg S.C.), -31% in experiment [1] (10 mg/kg S.C.), -54% in experiment [1] (20 mg/kg S.C.) and -8% in experiment [1] (40 mg/kg S.C.).

As for `CCCCCCCC[C@@H]1SC(=S)S[C@H]1CCCCCCCC(=O)O` (relative stereo) [Compound E, (8.xi.-trans)-10-thioxo-9,11-dithia-1a-homoprostan-1-oic acid], the IC50 with prostaglandin synthesis is 390 µM.

Turning to `CCCCCCCC[C@@H]1OCO[C@H]1CCCCCCCC(=O)O` (relative stereo) [Compound F, (8.xi.-trans)-9,11-dioxa-1a-homoprostan-1-oic acid], the “Inhibition of prostaglandin synthesis” value in the experiment with prostaglandin synthesis was found to be 30%. In addition, the “Percent Change, Diarrhea Incidence” value in experiment [1] (5 mg/kg S.C.) was 0%; in experiment [1] (10 mg/kg S.C.) it was -36%; in experiment [1] (20 mg/kg S.C.), 0%; in experiment [1] (40 mg/kg S.C.) it was -14%.

Consider `CCCCCCCC[C@@H]1OS(=O)O[C@@H]1CCCCCCCC(=O)OC` (relative stereo) [Compound G, (8.xi.-cis)-10-oxo-9,11-dioxa-10-thia-1a-homoprostan-1-oic acid, methyl ester], for which the “Percent Change, Diarrhea Incidence” value in experiment [1] (5 mg/kg S.C.) is reported as -14%; in experiment [1] (10 mg/kg S.C.), -29%; in experiment [1] (20 mg/kg S.C.) it was -57%; in experiment [1] (40 mg/kg S.C.), 0%.

As to `CCCCCCC#C[C@H]1CCC[C@@H]1OCCCCCC(=O)O` [7-oxa-13-prostynoic acid, reference compound], the figures for the “Percent Change, Diarrhea Incidence” value in experiment [1] (0.2 mg/kg S.C.), in experiment [1] (1 mg/kg S.C.) and in experiment [1] (5 mg/kg S.C.) were -15%, -100% and -100%, respectively.

For `CC(=O)Oc1ccccc1C(=O)O` [Aspirin, reference compound], the IC50 with prostaglandin synthesis was found to be 3700 µM.

Turning to `COc1ccc2c(c1)c(CC(=O)O)c(C)n2C(=O)c1ccc(Cl)cc1` [Indomethacin, reference compound], the IC50 in the experiment with prostaglandin synthesis worked out at 2 µM.

Turning to `CCCCC1C(=O)N(c2ccccc2)N(c2ccccc2)C1=O` [Phenylbutazone, reference compound], in the experiment with prostaglandin synthesis, the IC50 stood at 875 µM.

For “polyphloretin phosphate [PPP, reference compound]”, the “Percent Change, Diarrhea Incidence” value was -4% in experiment [1] (5 mg/kg S.C.); -26% in experiment [1] (10 mg/kg S.C.); -36% in experiment [1] (20 mg/kg S.C.); -65% in experiment [1] (40 mg/kg S.C.); -68% in experiment [1] (80 mg/kg S.C.).
